Measurements published in US5871954A, “Fatty acid analog enzyme substrates” (Washington University, priority 1993, dated 1999).
Entries after “also recorded” stand apart in the source; their conditions may differ. Starred links: 1 amine or outer side, 2 acyl side, 3 side chain; linkers in the order of their positions; H or OH if unused. Non-standard residues stand in square brackets, D forms with d. No end group written: not given here. *: point of attachment. Tyr(125I) = 125I-iodotyrosine, O=C([C@H](Cc1ccc(O[*:3])c([125I])c1)N[*:1])[*:2]; 11‑(ethylthio)undecanoyl = CCSCCCCCCCCCCC(=O)*

Assays:
[1] = test system: wheat germ NMT; experiment: in vitro wheat germ NMT myristoylation assay, kinetics with iodinated peptide GNAAS[125I]YRR; type: biochemical
Experimental: Myristoyl CoA and fatty acid analog CoA were generated by incubation of the fatty acid or analog with CoA, ATP and CoA ligase. This reaction mixture was added to wheat germ NMT and Gly-Asn-Ala-Ala-Ser-[^125 I]Tyr-Arg-Arg in the presence of 0.03% Triton® X-100. Reaction products were characterized by reverse phase HPLC and gamma counting.
The invention is illustrated in greater detail in the following Examples 1 to 15 by the synthesis and testing of representative compounds of the invention as myristoylating enzyme substrates. Accordingly, the invention is first illustrated in Examples 1 to 5 by the chemical synthesis of a sulfur-containing analog of myristic acid, namely 11-(ethylthio)undecanoicacid, CH3 CH2 --S--(CH2)10 COOH, which is then tested in vitro as a wheat germ NMT substrate. Wheat germ NMT is a protein similar to yeast NMT. The purity and chemical identity of the synthesized compound were examined using ^1 H and ^13 C NMR as well as mass spectroscopy. The assay that was used to characterize the substrate specificity of wheat germ NMT measures the rate of attachment of a radiolabelled fatty acid to an unlabelled peptide. The fatty acid analog synthesized was nonradioactive.
The in vitro assay for NMT activity requires the enzymatic generation of fatty acyl CoA. Since the Pseudomonas acyl CoA ligase is quite nonspecific [Shimizo et al., Anal. Biochem. 107, 193-198 (1980)] and is used in excess, it should equally well convert myristic acid and 11-(ethylthio)undecanoic acid to the corresponding CoA esters. It is, therefore, believed that the data represent the relative catalytic efficiency of fatty acyl CoA and analog CoA for wheat germ NMT.
Assays for NMT activity were performed using a procedure detailed previously by Towler and Glaser, Proc. Natl. Acad. Sci. USA 83, 2812-2816 (1986). Briefly, the in vitro assay measures the transfer of radiolabelled fatty acid from acyl CoA to a synthetic peptide substrate. The acylpeptide product is identified by reverse phase HPLC. Time and enzyme dependence were evaluated by varying the reaction time or the enzyme concentration. […] Fatty acid specificity was examined essentially as described by Towler et al., J. Biol. Chem. 262, 1030-1036 (1987), except that the peptide Gly-Ser-Ser-Lys-Ser-Lys-Pro-Lys rather than Gly-Asn-Ala-Ala-Ala-Ala-Arg-Arg was used to compare palmitate and myristate utilization by wheat germ NMT. This was necessary because of the presence of a large, peptide-independent peak which co-eluted with a palmitoyl-Gly-Asn-Ala-Ala-Ala-Ala-Arg-Arg standard. [^3 H]Palmitate and [^3 H]myristate were used in this comparison. [^14 C]fatty acids were used to compare C-10, C-12 and C-14 chain lengths. Fatty acyl CoA concentrations in these assays were determined by a modification of the method of Hosaka et al., Methods Enzymol. 71, 325-333 (1981).
Gly-Asn-Ala-Ala-Ser-[^125 I]Tyr-Arg-Arg as prepared in Example 2, above, was tested in an in vitro myristoylation system which was modified from that used with radiolabelled fatty acids. […] 20-fold more wheat germ NMT (480-fold purified as in Example 3, above) was used for these assays than for assays which employed [^3 H] myristate. […] Double reciprocal plots were generated for the iodinated peptide with both myristic acid and the sulfur analog by altering the peptide concentration in the presence of a constant amount of fatty acid or analog. […] The assays contained 0.03% Triton X-100 to maintain the solubility of the fatty acids.

[2] = C18 reverse phase HPLC elution of acyl peptides (hydrophobicity); type: physicochemical; conditions: for elution earlier than the corresponding myristoyl peptide: acyl-GNAASYRR[125I]; for Elution Time: Table 2, C18 reverse phase HPLC; for elution time of fatty acyl derivative of GNAAAARR: HPLC
Experimental: The fatty acid analog acyl-peptide eluted 7 minutes earlier than the corresponding myristoyl peptide. The free peptide elutes in the void volume (3-5 minutes).
This difference was evident when the HPLC elution characteristics of fatty acyl peptides were examined. The elution time of a particular acyl-peptide depends strongly on the peptide sequence as well as on the acyl chain attached to that peptide. For example, the elution times of fatty acyl derivatives of GNAAAARR are (in minutes) decanoic acid, 9; dodecanoic acid, 18; myristic acid, 24; and palmitic acid, 30. Elution times for fatty acyl derivatives of GNAAS[^125 I]YRR are 23 and 28 minutes for C12 and C14 fatty acids, respectively (FIG. 2). […] Such a change could alter the biological activity of myristoyl proteins.
(§1) For these Examples, each analog synthesized is characterized by ^1 H and 13C NMR as well as mass spectroscopy. The analogs are then characterized kinetically as NMT substrates. Briefly, fatty acid analogs are converted to their CoA esters with Pseudomonas CoA ligase and incubated with the iodinated peptide GNAAS[^125 I]YRR and a source of NMT. […] The radiolabelled peptide is then used at concentrations which will lead to 50% enzyme saturation (i.e., at its Km) for the determination of fatty acid analog kinetic characteristics. Representative analogs with sulfur or oxygen in the backbone of the fatty acid chain serve as good substrates for NMT in vitro and will compete for incorporation of ^3 H labelled myri-state into yeast proteins in vivo. In addition, these analogs differ markedly in hydrophobicity from myri-state as measured both by C18 reverse phase HPLC elution profiles and by 2-octanol/water partition coefficients. The analog CH3 O (CH2)11 COOH, for example, partitions into water 20 fold better than myristate. It is believed that these analogs will be incorporated into mammalian acylproteins in vivo and that their incorporation into these proteins will drastically alter protein processing or targeting. It is further believed that the incorporation of fatty acid analogs of both myristate and palmitate into ester linked and phosphatidyl inositol glycan linked acylproteins will also dramatically alter their properties. Since many viral proteins and oncogenes are acylated, these compounds represent a new class of potential antiviral and antineoplastic agents.

[3] = target: T1, yeast NMT (Saccharomyces cerevisiae, UniProt P14743); experiment: in vitro yeast NMT assay, kinetics of fatty acid analog substrates with iodinated peptide GNAAS[125I]YRR; type: biochemical; conditions: for Peptide Vm / Acyl CoA Vm: Table 2, relative to myristate control 100%; for Peptide Vm: fatty acid analog at 15 μM; for Acyl CoA Vm: peptide at its Km
T1 construct: 11,000-fold purified preparation of yeast NMT; from tissue; host or cells: yeast
T1 sequence (P14743 1-455): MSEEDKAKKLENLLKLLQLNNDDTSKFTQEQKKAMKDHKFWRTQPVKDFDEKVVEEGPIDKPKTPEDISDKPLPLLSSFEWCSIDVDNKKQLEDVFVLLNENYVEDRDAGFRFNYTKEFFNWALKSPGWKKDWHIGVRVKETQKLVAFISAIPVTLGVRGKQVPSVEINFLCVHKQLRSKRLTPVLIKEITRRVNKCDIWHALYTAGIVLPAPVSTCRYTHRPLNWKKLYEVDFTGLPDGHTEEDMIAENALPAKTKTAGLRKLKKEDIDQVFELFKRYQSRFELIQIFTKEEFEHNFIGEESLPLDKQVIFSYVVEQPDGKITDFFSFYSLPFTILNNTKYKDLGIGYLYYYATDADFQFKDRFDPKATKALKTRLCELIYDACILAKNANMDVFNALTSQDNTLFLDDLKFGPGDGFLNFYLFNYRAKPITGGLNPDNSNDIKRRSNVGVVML
Excerpt: Similar results were obtained using an 11,000-fold purified preparation of yeast NMT [Towler et al., Proc. Natl. Acad. Sci. USA 84, 2708-2712 (1987)].
Other illustrative examples of the oxy- and thio-substituted fatty acid analog substrate compounds of the invention were synthesized in Examples 6 to 14 and tested in Example 15 as substrates for the yeast NMT.
as §1

[4] = target: T2, myristoyl CoA: protein N-myristoyl transferase (NMT) (Saccharomyces cerevisiae, UniProt P14743); experiment: substrate activity for myristoylating enzyme (general statement); type: biochemical; conditions: in words
T2 construct: CoA ester made in situ by Pseudomonas CoA ligase
T2 sequence (P14743 1-455): T1 sequence (P14743 1-455)
Experimental: Purification and use of this enzyme are described, for example, by Towler et al., Proc. Natl. Acad. Sci. USA 84, 2708-2712 (1987); J. Biol. Chem. 262, 1030-1036 (1987).
as §1, with “It is further believed that the incorporation of fatty acid analogs of both myristate and palmitate into ester linked and phosphatidyl inositol glycan linked acylproteins will also dramatically alter their properties. Since many viral proteins and oncogenes are acylated, these compounds represent a new class of potential antiviral and antineoplastic agents.” left out

[5] = C-18 reverse phase HPLC, FIG. 2
[6] = iodinated peptide 40 μM, 0.03% Triton X-100, FIG. 1

CCSCCCCCCCCCCC(=O)SCCNC(=O)CCNC(=O)[C@H](O)C(C)(C)COP(=O)(O)OP(=O)(O)OC[C@H]1O[C@@H](n2cnc3c(N)ncnc32)[C@H](O)[C@@H]1OP(=O)(O)O
substrate quality vs myristoyl CoA ([1]; wheat germ NMT): at least as good a substrate for wheat germ NMT as myristoyl CoA itself

11-(ethylthio)undecanoyl-GNAASYRR[^125 I]: fatty acid analog acyl-peptide ({11‑(ethylthio)undecanoyl}-GNAAS[Tyr(125I)]RR)
elution earlier than the corresponding myristoyl peptide [2, 5]: 7 min
elution earlier than the corresponding myristoyl peptide ([2]; C-18 reverse phase HPLC, FIG. 2, listed as 11-(ethylthio)undecanoyl-GNAAS [^125 I]YRR): seven minutes earlier

CCCOCCCCCCCCCC(=O)O [CH3 (CH2)2 O(CH2)9 COOH, 10-(Propoxy)decanoic acid]
Peptide Vm [3]: 150%
Acyl CoA Vm [3]: 250%

CCCSCCCCCCCCCC(=O)O [CH3 (CH2)2 S(CH2)9 COOH, 10-(Propylthio)decanoic acid]
Acyl CoA Vm [3]: 250%
Elution Time [2]: 18 min

CCCCOCCCCCCCCCCC(=O)O [CH3 (CH2)3 O(CH2)10 COOH, 11-(1-Butoxy)undecanoic acid]
Peptide Vm [3]: 25%
Acyl CoA Vm [3]: 80%
Elution Time [2]: 19 min
effectiveness as substrate [4]: less effective than the analogs based on C13 -C14 fatty acids

CCCCCCCCOCCCCC(=O)O [CH3 (CH2)7 O(CH2)4 COOH, 5-(octyloxy)pentanoic acid]
Elution Time [2]: 16 min

CCCCCCCCSCCCCC(=O)O [CH3 (CH2)7 S(CH2)4 COOH, 5-(Octylthio)pentanoic acid]
Acyl CoA Vm [3]: 160%
Elution Time [2]: 21 min

CCCCCCCCCCCCCC(=O)O [CH3 (CH2)12 COOH, myristic acid, reference compound]
Peptide Vm [3]: 100%
Acyl CoA Vm [3]: 100%
elution time of fatty acyl derivative of GNAAS[125I]YRR [2, 5]: 28 min
elution time of fatty acyl derivative of GNAAAARR [2]: 24 min
Elution Time [2]: 26 min

CCOCCCCCCCCCCC(=O)O [CH3 CH2 O(CH2)10 COOH, 11-(Ethoxy)undecanoic acid]
Peptide Vm [3]: 62%
Acyl CoA Vm [3]: 64%
Elution Time [2]: 12 min

CCSCCCCCCCCCCC(=O)O [CH3 CH2 S(CH2)10 COOH, 11-(Ethylthio)undecanoic acid]
Km and Vmax vs C14:0 fatty acid ([3]; 11,000-fold purified yeast NMT): indistinguishable from that of the C14:0 fatty acid
Peptide Vm [3]: 98%
Acyl CoA Vm [3]: 130%
effect on the kinetic characteristics of the peptide substrate ([1]; in words, vs myristic acid): did not significantly alter the kinetic characteristics of the peptide substrate
Km (as CoA ester), times higher than for myristate [1, 6]: 1.5 times
Vmax (as CoA ester), times higher than for myristate [1, 6]: 3.5 times
apparent maximal velocity, times higher than with myristic acid ([1]; peptide substrate varied): 2.3 times
Elution Time [2]: 18 min
hydrophobicity ([2]; in words, vs myristic acid): decreases its hydrophobicity; also recorded: significantly different from that of myristic acid
effectiveness as substrate [4]: leaves intact its ability to act as a substrate

C#CCOCCCCCCCCCC(=O)O [HC≡CCH2 O(CH2)9 COOH, 10-(2-Propynoxy)decanoic acid]
Peptide Vm [3]: 200%
Acyl CoA Vm [3]: 320%
Elution Time [2]: 9 min

CCCCCCCCCC(=O)O [decanoic acid, reference compound]
elution time of fatty acyl derivative of GNAAAARR [2]: 9 min

CCCCCCCCCCCC(=O)O [dodecanoic acid, reference compound]
elution time of fatty acyl derivative of GNAAS[125I]YRR [2, 5]: 23 min
elution time of fatty acyl derivative of GNAAAARR [2]: 18 min

CCCCCCCCCCCCCCCC(=O)O [palmitic acid, reference compound]
elution time of fatty acyl derivative of GNAAAARR [2]: 30 min

Gly-Asn-Ala-Ala-Ser-[^125 I]Tyr-Arg-Arg [free peptide, reference compound]
elution of free peptide (void volume) [2, 5]: 3 to 5 min
